Literature values, collected in patent US9199026B2, “Modular extracorporeal systems and methods for treating blood-borne diseases” (SOMERSET GROUP ENTERPRISES, INC., priority 2011, dated 2015).
Like-named read-outs stand apart in the source and are kept apart here. Values belong to the compound of their own block, whether it stands above or below them.

How the values were obtained:
[1] = not given; remark: listed apart in the source
[2] = system: bacteria; settings: second line of the cell pair 'Spectrum

Compound: CC1(C)S[C@@H]2[C@H](/N=C/N3CCCCCC3)C(=O)N2[C@H]1C(=O)O [Amdinocillin]
Percent removed By CAPD ([1]; in vivo): Negligible (<4%)
Percent removed By hemodialysis (in vivo): 32-70%

Compound: CC1(C)S[C@@H]2[C@H](NC(=O)C(C(=O)O)c3ccccc3)C(=O)N2[C@H]1C(=O)O (some centres unmarked) [Carbenicillin]
Percent removed By hemodialysis (in vivo): 50%

Compound: Cc1nnc(SCC2=C(C(=O)O)N3C(=O)[C@@H](NC(=O)Cn4cnnn4)[C@H]3SC2)s1 [Cefazolin]
Percent removed By CAPD ([1]; CAPD): 20%
Percent removed By hemodialysis (hemodialysis): 50%

Compound: CO/N=C(\C(=O)N[C@@H]1C(=O)N2C(C(=O)[O-])=C(C[N+]3(C)CCCC3)CS[C@H]12)c1csc(N)n1 [Cefipime]
Percent removed By CAPD ([1]; CAPD): 26%
Percent removed By hemodialysis (hemodialysis): 40-70%

Compound: CC=CC1=C(C(=O)O)N2C(=O)[C@@H](NC(=O)[C@H](N)c3ccc(O)cc3)[C@H]2SC1 [Cefprozil]
Percent removed By hemodialysis (in vivo): 55%

Compound: NC(=O)c1cc[n+](CC2=C(C(=O)O)N3C(=O)[C@@H](NC(=O)[C@@H](c4ccccc4)S(=O)(=O)[O-])[C@H]3SC2)cc1 [Cefsulodin]
Percent removed By hemodialysis (hemodialysis): 60%

Compound: Nc1nc(/C(=C/CC(=O)O)C(=O)N[C@@H]2C(=O)N3C(C(=O)O)=CCS[C@H]23)cs1 [Ceftibuten]
Percent removed By hemodialysis (in vivo): 39%

Compound: CO/N=C(\C(=O)N[C@@H]1C(=O)N2C(C(=O)O)=CCS[C@H]12)c1csc(N)n1 [Ceftizoxime]
Percent removed By CAPD ([1]; in vivo): Negligible (16%)
Percent removed By hemodialysis (in vivo): 50%

Compound: CO/N=C(\C(=O)N[C@@H]1C(=O)N2C(C(=O)O)=C(CSc3nc(=O)c(=O)[nH]n3C)CS[C@H]12)c1csc(N)n1 [Ceftriaxone]
Percent removed By CAPD ([1]; in vivo): Negligible (4.5%)
Percent removed By hemodialysis (in vivo): 40%

Compound: CC(=O)OCC1=C(C(=O)O)N2C(=O)[C@@H](NC(=O)CC#N)[C@H]2SC1 [Cephacetrile]
Percent removed By hemodialysis (in vivo): 50%

Compound: CC(=O)OCC1=C(C(=O)O)N2C(=O)[C@@H](NC(=O)CSc3ccncc3)[C@H]2SC1 [Cephapirin]
Percent removed By hemodialysis (hemodialysis): 20%

Compound: Nc1ccn(C[C@@H](CO)OCP(=O)(O)O)c(=O)n1 [Cidofovir]
Percent removed By CAPD ([1]; CAPD): Negligible
Percent removed By hemodialysis (hemodialysis): 50%

Compound: O=C(O)c1cn(C2CC2)c2cc(N3CCNCC3)c(F)cc2c1=O [Ciprofloxalin]
activity (bactericidal / static) [2]: bactericidal

Compound: C[C@@H](O)[C@H]1C(=O)N2C(C(=O)O)=C(SCCN=CN)C[C@H]12 [Imipenem]
Percent removed By CAPD ([1]; in vivo): Negligible
Percent removed By hemodialysis (in vivo): 80-90%

Compound: CC(=O)NC[C@H]1CN(c2ccc(N3CCOCC3)c(F)c2)C(=O)O1 [Linezolid]
Percent removed By hemodialysis (hemodialysis): 33%

Compound: C[C@@H](O)[C@H]1C(=O)N2C(C(=O)O)=C(S[C@@H]3CN[C@H](C(=O)N(C)C)C3)[C@H](C)[C@H]12 [Meropenem]
Percent removed By hemodialysis (in vivo): 50-70%

Compound: Nc1ccc(C(=O)O)c(O)c1 [Para-aminosalicylic Acid]
Percent removed By hemodialysis (hemodialysis): 50%

Compound: CN[C@@H]1[C@H](O)[C@H](NC)[C@H]2O[C@@]3(O)C(=O)C[C@@H](C)O[C@H]3O[C@@H]2[C@H]1O [Spectinomycin]
Percent removed By hemodialysis (in vivo): 50%

Compound: CO[C@@]1(NC(=O)C(C(=O)O)c2ccsc2)C(=O)N2[C@@H](C(=O)O)C(C)(C)S[C@@H]21 (some centres unmarked) [Temocillin]
Percent removed By CAPD ([1]; CAPD): Negligible (6%)
Percent removed By hemodialysis (hemodialysis): 50%

Compound: Penicillin
Percent removed By hemodialysis (hemodialysis): 50%

More lines, now with the values ahead:

Percent removed By hemodialysis (in vivo): 24%
Compound: Nc1nc(NC2CC2)c2ncn([C@H]3C=C[C@@H](CO)C3)c2n1 [Abacavir]

Percent removed By hemodialysis (in vivo): 30%
Compound: CC1(C)S[C@@H]2[C@H](NC(=O)[C@H](N)c3ccc(O)cc3)C(=O)N2[C@H]1C(=O)O [Amoxicillin]

Percent removed By hemodialysis (in vivo): 90%
Compound: C[C@@H](O)[C@H]1C(=O)N2C(C(=O)[O-])=C(SC3Cn4cnc[n+]4C3)[C@H](C)[C@H]12 (some centres unmarked) [Biapenem]

Percent removed By hemodialysis (in vivo): 33%
Compound: N[C@@H](C(=O)N[C@@H]1C(=O)N2C(C(=O)O)=C(Cl)CS[C@H]12)c1ccccc1 [Cefaclor]

Percent removed By CAPD ([1]; in vivo): Negligible (<10%)
Percent removed By hemodialysis (in vivo): 16-51%
Compound: CO/N=C(\C(=O)N[C@@H]1C(=O)N2C(C(=O)O)=C(CSc3nnnn3C)CS[C@H]12)c1csc(N)n1 [Cefmenoxime]

Percent removed By hemodialysis (in vivo): 60%
Compound: CO[C@@]1(NC(=O)CSCC#N)C(=O)N2C(C(=O)O)=C(CSc3nnnn3C)CS[C@@H]21 [Cefmetazole]

Percent removed By CAPD ([1]; in vivo): Negligible (15%)
Percent removed By hemodialysis (in vivo): 50%
Compound: CO/N=C(\C(=O)N[C@@H]1C(=O)N2C(C(=O)O)=C(CSc3nc(C)c(CC(=O)O)s3)CS[C@H]12)c1csc(N)n1 [Cefodizime]

Percent removed By CAPD ([1]; in vivo): Negligible
Percent removed By hemodialysis (in vivo): 20-50%
Compound: NCc1ccccc1CC(=O)N[C@@H]1C(=O)N2C(C(=O)O)=C(CSc3nnnn3CC(=O)O)CS[C@H]12 [Ceforanide]

Percent removed By CAPD ([1]; in vivo): Negligible
Percent removed By hemodialysis (in vivo): 50%
Compound: CO[C@@]1(NC(=O)Cc2cccs2)C(=O)N2C(C(=O)O)=C(COC(N)=O)CS[C@@H]21 [Cefoxitin]

Percent removed By CAPD ([1]; in vivo): Negligible (12%)
Percent removed By hemodialysis (in vivo): 32-48%
Compound: CO/N=C(\C(=O)N[C@@H]1C(=O)N2C(C(=O)[O-])=C(C[n+]3cccc4c3CCC4)CS[C@H]12)c1csc(N)n1 [Cefpirome]

Percent removed By hemodialysis (in vivo): 50%
Compound: COCC1=C(C(=O)O)N2C(=O)[C@@H](NC(=O)/C(=N\OC)c3csc(N)n3)[C@H]2SC1 [Cefpodoxime]

Percent removed By hemodialysis (in vivo): 50%
Compound: COC1=C(C(=O)O)N2C(=O)[C@@H](NC(=O)[C@H](N)C3=CCC=CC3)[C@H]2SC1 [Cefroxadine]

Percent removed By CAPD ([1]; in vivo): Negligible
Percent removed By hemodialysis (in vivo): 50%
Compound: CC(C)(O/N=C(\C(=O)N[C@@H]1C(=O)N2C(C(=O)[O-])=C(C[n+]3ccccc3)CS[C@H]12)c1csc(N)n1)C(=O)O [Ceftazidime]

Percent removed By CAPD ([1]; in vivo): 20%
Compound: CO/N=C(\C(=O)N[C@@H]1C(=O)N2C(C(=O)O)=C(COC(N)=O)CS[C@H]12)c1ccco1 [Cefuroxime]

Percent removed By CAPD ([1]; in vivo): 30%
Percent removed By hemodialysis (in vivo): 50-75%
Compound: CC1=C(C(=O)O)N2C(=O)[C@@H](NC(=O)[C@H](N)c3ccccc3)[C@H]2SC1 [Cephalexin]

Percent removed By hemodialysis (in vivo): 50%
Compound: CC(=O)OCC1=C(C(=O)O)N2C(=O)[C@@H](NC(=O)Cc3cccs3)[C@H]2SC1 [Cephalothin]

Percent removed By hemodialysis (in vivo): 30-40%
Compound: CN(C)CCn1nnnc1SCC1=C(C(=O)O)N2C(=O)[C@@H](NC(=O)Cc3csc(N)n3)[C@H]2SC1 [Defotiam]

Percent removed By hemodialysis (in vivo): 75%
Compound: NNC(=O)c1ccncc1 [Isoniazid]

Percent removed By CAPD ([1]; in vivo): 24%
Percent removed By hemodialysis (in vivo): 20-25%
Compound: CC1(C)S[C@@H]2[C@H](NC(=O)[C@H](NC(=O)N3CCN(S(C)(=O)=O)C3=O)c3ccccc3)C(=O)N2[C@H]1C(=O)O [Mezlocillin]

Percent removed By CAPD ([1]; in vivo): Negligible (15-20%)
Percent removed By hemodialysis (in vivo): 30-50%
Compound: CO[C@@]1(NC(=O)C(C(=O)O)c2ccc(O)cc2)C(=O)N2C(C(=O)O)=C(CSc3nnnn3C)CO[C@@H]21 (some centres unmarked) [Moxalactam]

Percent removed By CAPD ([1]; in vivo): Negligible (7%)
Percent removed By hemodialysis (in vivo): 50%
Compound: COc1cc(Cc2cnc(N)nc2N)cc(OC)c1OC [Trimethoprim]
